# Laboratory results taken from the supplement of paper PMC10307832.
# Key:
# Test in all cases: relative viability (nuclei count vs DMSO), 5 days (fraction); higher = more cells survive
# BI-2536 + Bortezomib = compound: CC[C@@H]1C(=O)N(C)c2cnc(Nc3ccc(C(=O)NC4CCN(C)CC4)cc3OC)nc2N1C1CCCC1 [BI-2536] + CC(C)C[C@H](NC(=O)[C@H](Cc1ccccc1)NC(=O)c1cnccn1)B(O)O [Bortezomib] (partner 0.002 µM)
# Outline: (§1)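 For relative viability, nuclei counts in treated wells were divided by those in vehicle wells. Lung cancer cell lines had been pin-tool dosed in 1536-well plates the day after seeding and cultured for 5 days, then fixed and stained in one step (final 0.05% Triton X-100, 1% formaldehyde, 1 ug/ml Hoechst) and imaged at 4×. Doses were one drug alone or a fixed anchor-drug dose plus five library-drug doses (not always all listed) in √10 steps, and values are duplicate-plate medians.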
# BI-2536 + AZD7762 = compound: CC[C@@H]1C(=O)N(C)c2cnc(Nc3ccc(C(=O)NC4CCN(C)CC4)cc3OC)nc2N1C1CCCC1 [BI-2536] + NC(=O)Nc1cc(-c2cccc(F)c2)sc1C(=O)N[C@H]1CCCNC1 [AZD7762] (partner 0.2 µM)
# Outline: as §1
# [1] = compound: CC1CC(=O)N(C2=CN=C(N=C2N1C3CCCC3)NC4=C(C=C(C=C4)C(=O)NC5CCN(CC5)C)OC)C [NPK76-II-72-1] + Cc1nc(NC(=O)N2CCC[C@H]2C(N)=O)sc1-c1ccnc(C(C)(C)C(F)(F)F)c1 [Alpelisib] (partner 2 µM)
# Outline: as §1
# BI-2536 + Palbociclib = compound: CC[C@@H]1C(=O)N(C)c2cnc(Nc3ccc(C(=O)NC4CCN(C)CC4)cc3OC)nc2N1C1CCCC1 [BI-2536] + CC(=O)c1c(C)c2cnc(Nc3ccc(N4CCNCC4)cn3)nc2n(C2CCCC2)c1=O [Palbociclib] (partner 0.5 µM)
# Outline: as §1
cell line,measurement,setting,value
LCLC-97TM1,relative viability,BI-2536 + Bortezomib; first compound 0.01 µM,0.658
same,relative viability,BI-2536 + Bortezomib; first compound 0.03162 µM,0.408
same,relative viability,BI-2536 + Bortezomib; first compound 0.1 µM,0.0735
same,relative viability,BI-2536 + Bortezomib; first compound 0.3162 µM,0.0639
same,relative viability,BI-2536 + Bortezomib; first compound 1 µM,0.0648
same,relative viability,BI-2536 + AZD7762; first compound 0.01 µM,0.159
same,relative viability,BI-2536 + AZD7762; first compound 0.03162 µM,0.216
same,relative viability,BI-2536 + AZD7762; first compound 0.1 µM,0.0989
same,relative viability,BI-2536 + AZD7762; first compound 0.3162 µM,0.0787
same,relative viability,BI-2536 + AZD7762; first compound 1 µM,0.0721
same,relative viability,[1]; first compound 0.03162 µM,0.24
same,relative viability,[1]; first compound 0.1 µM,0.18
same,relative viability,[1]; first compound 0.3162 µM,0.235
same,relative viability,[1]; first compound 1 µM,0.257
same,relative viability,BI-2536 + Palbociclib; first compound 0.01 µM,0.225
same,relative viability,BI-2536 + Palbociclib; first compound 0.03162 µM,0.203
same,relative viability,BI-2536 + Palbociclib; first compound 0.1 µM,0.144
same,relative viability,BI-2536 + Palbociclib; first compound 0.3162 µM,0.107
same,relative viability,BI-2536 + Palbociclib; first compound 1 µM,0.0769
NCI-H727,relative viability,BI-2536 + Bortezomib; first compound 0.01 µM,0.807
same,relative viability,BI-2536 + Bortezomib; first compound 0.03162 µM,0.833
same,relative viability,BI-2536 + Bortezomib; first compound 0.1 µM,0.656
same,relative viability,BI-2536 + Bortezomib; first compound 0.3162 µM,0.267
same,relative viability,BI-2536 + Bortezomib; first compound 1 µM,0.239
same,relative viability,BI-2536 + AZD7762; first compound 0.01 µM,0.479
same,relative viability,BI-2536 + AZD7762; first compound 0.03162 µM,0.8
same,relative viability,BI-2536 + AZD7762; first compound 0.1 µM,0.664
same,relative viability,BI-2536 + AZD7762; first compound 0.3162 µM,0.406
same,relative viability,BI-2536 + AZD7762; first compound 1 µM,0.314
same,relative viability,[1]; first compound 0.01 µM,0.476
same,relative viability,[1]; first compound 0.03162 µM,0.516
same,relative viability,[1]; first compound 0.1 µM,0.626
same,relative viability,[1]; first compound 0.3162 µM,0.543
same,relative viability,[1]; first compound 1 µM,0.713
same,relative viability,BI-2536 + Palbociclib; first compound 0.01 µM,0.708
same,relative viability,BI-2536 + Palbociclib; first compound 0.03162 µM,0.613
same,relative viability,BI-2536 + Palbociclib; first compound 0.1 µM,0.701
same,relative viability,BI-2536 + Palbociclib; first compound 0.3162 µM,0.615
same,relative viability,BI-2536 + Palbociclib; first compound 1 µM,0.437
NCI-H1355,relative viability,BI-2536 + Bortezomib; first compound 0.01 µM,1.21
same,relative viability,BI-2536 + Bortezomib; first compound 0.03162 µM,1.21
same,relative viability,BI-2536 + Bortezomib; first compound 0.1 µM,0.874
same,relative viability,BI-2536 + Bortezomib; first compound 0.3162 µM,0.303
same,relative viability,BI-2536 + Bortezomib; first compound 1 µM,0.184
same,relative viability,BI-2536 + AZD7762; first compound 0.01 µM,0.697
same,relative viability,BI-2536 + AZD7762; first compound 0.03162 µM,0.776
same,relative viability,BI-2536 + AZD7762; first compound 0.1 µM,0.751
same,relative viability,BI-2536 + AZD7762; first compound 0.3162 µM,0.269
same,relative viability,BI-2536 + AZD7762; first compound 1 µM,0.185
same,relative viability,[1]; first compound 0.01 µM,0.834
same,relative viability,[1]; first compound 0.03162 µM,0.827
same,relative viability,[1]; first compound 0.1 µM,0.544
same,relative viability,[1]; first compound 0.3162 µM,0.755
same,relative viability,[1]; first compound 1 µM,0.849
same,relative viability,BI-2536 + Palbociclib; first compound 0.01 µM,0.415
same,relative viability,BI-2536 + Palbociclib; first compound 0.03162 µM,0.405
same,relative viability,BI-2536 + Palbociclib; first compound 0.1 µM,0.385
same,relative viability,BI-2536 + Palbociclib; first compound 0.3162 µM,0.171
same,relative viability,BI-2536 + Palbociclib; first compound 1 µM,0.158
HOP-62,relative viability,BI-2536 + Bortezomib; first compound 0.01 µM,0.603
same,relative viability,BI-2536 + Bortezomib; first compound 0.03162 µM,1.34
same,relative viability,BI-2536 + Bortezomib; first compound 0.1 µM,0.329
same,relative viability,BI-2536 + Bortezomib; first compound 0.3162 µM,0.114
same,relative viability,BI-2536 + Bortezomib; first compound 1 µM,0.103
same,relative viability,BI-2536 + AZD7762; first compound 0.01 µM,0.505
same,relative viability,BI-2536 + AZD7762; first compound 0.03162 µM,0.653
same,relative viability,BI-2536 + AZD7762; first compound 0.1 µM,0.235
same,relative viability,BI-2536 + AZD7762; first compound 0.3162 µM,0.15
same,relative viability,BI-2536 + AZD7762; first compound 1 µM,0.101
same,relative viability,[1]; first compound 0.01 µM,1.08
same,relative viability,[1]; first compound 0.03162 µM,0.999
same,relative viability,[1]; first compound 0.1 µM,0.871
same,relative viability,[1]; first compound 0.3162 µM,1.1
same,relative viability,[1]; first compound 1 µM,1.12
same,relative viability,BI-2536 + Palbociclib; first compound 0.01 µM,0.421
same,relative viability,BI-2536 + Palbociclib; first compound 0.03162 µM,0.409
same,relative viability,BI-2536 + Palbociclib; first compound 0.1 µM,0.443
same,relative viability,BI-2536 + Palbociclib; first compound 0.3162 µM,0.17
same,relative viability,BI-2536 + Palbociclib; first compound 1 µM,0.143
NCI-H2085,relative viability,BI-2536 + Bortezomib; first compound 0.01 µM,1.05
same,relative viability,BI-2536 + Bortezomib; first compound 0.03162 µM,1.01
same,relative viability,BI-2536 + Bortezomib; first compound 0.1 µM,0.587
same,relative viability,BI-2536 + Bortezomib; first compound 0.3162 µM,0.371
same,relative viability,BI-2536 + Bortezomib; first compound 1 µM,0.381
same,relative viability,BI-2536 + AZD7762; first compound 0.01 µM,1.03
same,relative viability,BI-2536 + AZD7762; first compound 0.03162 µM,0.963
same,relative viability,BI-2536 + AZD7762; first compound 0.1 µM,0.737
same,relative viability,BI-2536 + AZD7762; first compound 0.3162 µM,0.217
same,relative viability,BI-2536 + AZD7762; first compound 1 µM,0.27
same,relative viability,[1]; first compound 0.01 µM,0.889
same,relative viability,[1]; first compound 0.03162 µM,0.946
same,relative viability,[1]; first compound 0.1 µM,0.932
same,relative viability,[1]; first compound 0.3162 µM,0.899
same,relative viability,[1]; first compound 1 µM,1
same,relative viability,BI-2536 + Palbociclib; first compound 0.01 µM,0.489
same,relative viability,BI-2536 + Palbociclib; first compound 0.03162 µM,0.446
same,relative viability,BI-2536 + Palbociclib; first compound 0.1 µM,0.409
same,relative viability,BI-2536 + Palbociclib; first compound 0.3162 µM,0.287
same,relative viability,BI-2536 + Palbociclib; first compound 1 µM,0.301
